# According to US20080064679A1, “Water Soluble Cannabinoids” (priority 2004, published 2008):
# Where two headings read alike, the source gives them in different places.
# Key:
# human CB2 receptor = biological target: T1, human CB2 receptor (Homo sapiens, UniProt P34972); assay: CB2 receptor binding, [3H]CP55,940 displacement in membranes of transfected cells; settings: Table 1B, mean±SEM
# T1 construct: expressed in transfected cells; b94 says HEK for CB2
# Method: (§1) cLogP calculations. Absolute solubility determinations were not performed. Rather, cLogP calculations were performed using the CS ChemDraw Ultra software (Cambridge Soft Corporation, Cambridge, Mass.). Receptor Binding. HEK-293 cells stably expressing the human CB1 receptor were cultured in DMEM with 10% FBS and Chinese Hamster Ovary (CHO) cells stably expressing the human CB2 receptor were cultured in DMEM with 10% FCS. Cells were harvested by replacement of the media with cold phosphate-buffered saline containing 1 mM EDTA followed by centrifugation at 1000×g for 5 min at 4° C. The pellet was resuspended in 50 mM Tris-HCl containing 320 mM sucrose, 2 mM EDTA and 5 mM MgCl2 (pH 7.4) (centrifugation buffer), then centrifuged at 1000×g for 10 min at 4° C., and the resulting supernatant was saved. This process was repeated twice. The supernatant fractions were combined and centrifuged at 40,000×g for 30 min at 4° C. The resulting P2 pellet was resuspended in assay buffer (50 mM Tris-HCl (pH 7.4), 3 mM MgCl2, 0.2 mM EGTA, and 100 mM NaCl) and protein was determined by the method of Bradford ENRfu(Bradford 1976). Membranes were stored at −80° C. until use. […] The assay was incubated at 30° C. for 1 hr and terminated by addition of ice cold 50 mM Tris-HCl plus BSA (1 mg/ml) (pH 7.4) followed by filtration under vacuum through Whatman GF/B glass fiber filters with 3 washes with cold Tris buffer. Bound radioactivity was determined by liquid scintillation spectrophotometry at 50% efficiency after extraction by shaking samples for 30-60 min with Budget-Solve scintillation fluid. Data are reported as the mean±SEM of three experiments, each performed in triplicate. Ki values were calculated from displacement data using EBDA (Equilibrium Binding Data Analysis; BIOSOFT, Milltown, N.J.). [^35S]GTPγS Binding Assays. Concentration-effect curves were generated by incubating membranes (10 μg prepared from CB1 expressing cells as described above) in assay buffer containing BSA (1 mg/ml) with various concentrations of test compounds in the presence of 20 μM GDP and 0.1 nM [^35S]GTPγS in a 1 ml total volume. […] Basal binding was assessed in the absence of agonist, and nonspecific binding was measured in the presence of 10 μM GTPγS. The reaction was incubated for 90 min at 30° C. and terminated by filtration under vacuum through Whatman GF/B glass fiber filters with 3 washes with cold (4° C.) Tris buffer (50 mM Tris-HCl, pH 7.4). Bound radioactivity was determined by liquid scintillation spectrophotometry at 95% efficiency after extraction overnight in ScintiSafe Econo 1 scintillation fluid. Data are reported as mean±SEM of three experiments, each performed in triplicate. Nonlinear regression analysis was conducted by iterative fitting using JMP (SAS for Macintosh). Net-stimulated [^35S]GTPγS binding is defined as [^35S]GTPγS binding in the presence of drug minus basal and percent stimulation is expressed as (net stimulated [^35S]GTPγS binding/basal)×100%. Behavioral Evaluations. All animals were allowed to acclimate to the observation room overnight. Behavioral effects were assessed in the tetrad model in order to measure potency in producing antinociception, catalepsy, hypothermia, and hypomobility. The baselines for tail-flick latency (2-4 seconds) and rectal temperature were determined prior to i.v. injections. Baseline rectal temperatures were measured using a telethermometer and a thermometer probe inserted to 25 mm (Yellow Springs Instrument Co., Yellow Springs, Ohio). The mice were then given either an i.v. i.c.v. injection of the analog. The mice were placed in individual photocell activity chambers 5 min later. Spontaneous activity was monitored for 10 min in a Digiscan Animal Activity Monitor (Omnitech Electronice, Inc., Columbus, Ohio) as measured by the number of interruptions of 16 photocell beams per chamber. The total number of beam interruptions during the 10-min period was determined and presented as total counts.
# [1] = Method: By “water-soluble” we mean that 1 mg of material in 1 ml of water gives a clear solution and is water miscible.
# (§2) For the in vivo studies, the drugs were dissolved in either saline or emulphor:ethanol:saline (E:E:S) as indicated.
# human CB1 receptor [2] = biological target: T2, human CB1 receptor (Homo sapiens, UniProt P21554); assay: CB1 receptor binding, [3H]CP55,940 displacement in membranes of transfected cells; settings: CB1 Ki
# T2 construct: expressed in transfected cells; b94 says CHO for CB1
# Method: as §2
# as §1, with “chamber.” for “chamber. The total number of beam interruptions during the 10-min period was determined and presented as total counts.”
# human CB1 receptor [3] = biological target: T2, human CB1 receptor; assay: [35S]GTPγS binding assay in membranes of CB1 expressing cells; format: biochemical
# Method: as §2
# as §1, with “chamber.” for “chamber. The total number of beam interruptions during the 10-min period was determined and presented as total counts.”
# mice [4] = assay: Rectal temperature (R.T.), mouse tetrad; format: in vivo; settings: Mus musculus, iv, vehicle E:E:S (1:1:18), read-out: R.T. ED50 (lowering rectal temperature)
# mice [5] = assay: Tetrad model, all four behavioral measures together (time course, oral and i.c.v. administration); format: in vivo, mouse; settings: i.c.v.; analogs dissolved in water, THC in emulphor:ethanol:saline; Table 5 not given
# mice [6] = assay: Spontaneous activity (S.A.), mouse tetrad; format: in vivo; settings: Mus musculus, iv, vehicle E:E:S (1:1:18), read-out: S.A. ED50 (reducing spontaneous activity)
# mice [7] = assay: Tail-flick antinociception (T.F.), mouse tetrad; format: in vivo; settings: Mus musculus, iv, mice, i.v., vehicle E:E:S (1:1:18); read-out: T.F. ED50 (antinociception in the tail-flick procedure)
# [8] = 1 mg of analog in 1 ml of water, visual observation
# T1 sequence (P34972 whole entry): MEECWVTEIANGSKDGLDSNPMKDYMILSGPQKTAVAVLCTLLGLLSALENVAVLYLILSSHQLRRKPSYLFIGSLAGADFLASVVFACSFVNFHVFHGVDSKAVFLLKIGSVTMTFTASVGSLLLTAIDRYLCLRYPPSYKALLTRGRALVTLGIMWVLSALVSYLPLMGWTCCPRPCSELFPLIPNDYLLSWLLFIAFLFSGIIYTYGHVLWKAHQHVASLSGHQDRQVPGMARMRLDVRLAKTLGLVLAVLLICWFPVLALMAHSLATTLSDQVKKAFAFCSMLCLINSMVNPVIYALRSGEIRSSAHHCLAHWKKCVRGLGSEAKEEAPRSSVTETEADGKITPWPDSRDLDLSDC
# T2 sequence (P21554 whole entry): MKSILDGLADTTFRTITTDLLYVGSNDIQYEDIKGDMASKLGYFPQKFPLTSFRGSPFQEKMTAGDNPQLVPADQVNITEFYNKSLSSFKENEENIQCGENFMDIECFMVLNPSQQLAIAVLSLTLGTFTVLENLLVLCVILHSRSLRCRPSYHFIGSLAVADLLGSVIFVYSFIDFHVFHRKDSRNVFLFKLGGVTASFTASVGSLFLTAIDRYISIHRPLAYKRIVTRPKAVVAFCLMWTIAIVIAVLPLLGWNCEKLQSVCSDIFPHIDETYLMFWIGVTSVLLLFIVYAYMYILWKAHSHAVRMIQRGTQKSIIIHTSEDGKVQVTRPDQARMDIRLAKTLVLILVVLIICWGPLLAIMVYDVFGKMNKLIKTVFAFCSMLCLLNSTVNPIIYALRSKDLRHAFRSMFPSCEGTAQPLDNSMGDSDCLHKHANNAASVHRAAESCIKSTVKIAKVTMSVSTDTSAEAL
structure (smiles),measurement,setting,value
"CC1=CC[C@@H]2[C@@H](C1)c1c(O)cc(C(C)(C)CCCCNC(=O)Cc3nc(-c4ccccc4)oc3C)cc1OC2(C)C [O-2590, 5-Methyl-2-phenyl-oxazol-4-yl-acetamide]",Ki,human CB2 receptor; CB2 Ki,169 ± 39.1 nM
same,Solubility (water-soluble),[1]; [8],No
same,Ki,"human CB1 receptor [2]; Table 1B, mean±SEM",890 ± 161 nM
"CC1=CC[C@@H]2[C@@H](C1)c1c(O)cc(C(C)(C)CCCCNC(=O)N3CCOCC3)cc1OC2(C)C [O-2619, Morpholino-1-carboxylic acid amide]",EC50,"human CB1 receptor [3]; CB1 EC50, [35S]GTPγS binding, mean±SEM",86 ± 3.1 nM
same,Emax,"human CB1 receptor [3]; maximal GTPγS binding as percentage of stimulation produced by CP 55,940, read-out: CB1 % CP Stim",116 ± 7.94%
same,Ki,human CB2 receptor; read-out: CB2 Ki,2.26 ± 0.38 nM
same,Solubility (water-soluble),[1],No
same,Ki,human CB1 receptor [2],18.6 ± 3.94 nM
"CC1=CC[C@@H]2[C@@H](C1)c1c(O)cc(C(C)(C)CCCCN(C(=O)N3CCOCC3)C(=O)N3CCOCC3)cc1OC2(C)C [O-2620, Di(morpholino-1-carboxylic acid) amide]",Ki,human CB2 receptor; read-out: CB2 Ki,772 ± 60.5 nM
same,Ki,human CB1 receptor [2],3020 ± 579 nM
"CCCCCc1cc(O)c2c(c1)OC(C)(C)C1CCC(C)=CC21 (stereo not drawn) [Δ^9-THC, Δ^9-tetrahydrocannabinol, reference compound]",ED50,mice [4],2.23 µmol/kg
same,Activity in the behavioral tests after i.c.v. injection,mice [5],"active with similar potencies in all tests, with the exception of weak antinociceptive activity"
same,Solubility (water-soluble),[1]; [8],No
same,ED50,mice [6],2.23 µmol/kg
same,ED50,mice [7],2.77 µmol/kg
